# Data taken from paper PMC5773487, “Harnessing insulin- and leptin-induced oxidation of PTP1B for therapeutic development” (Nature Communications, 2018).
# What was measured:
# reduced PTP1B = target: T1, reduced PTP1B (Homo sapiens, UniProt P18031); assay: phosphatase activity of reduced PTP1B, DiFMUP substrate; type: biochemical
# T1 construct: Purified PTP1B (1–321) (100 nM) was mixed with increasing concentrations of H2O2; 6xHis (C); made in house; host or cells: E. coli BL21 (DE3)-RIL
# T1 sequence (P18031 1-321): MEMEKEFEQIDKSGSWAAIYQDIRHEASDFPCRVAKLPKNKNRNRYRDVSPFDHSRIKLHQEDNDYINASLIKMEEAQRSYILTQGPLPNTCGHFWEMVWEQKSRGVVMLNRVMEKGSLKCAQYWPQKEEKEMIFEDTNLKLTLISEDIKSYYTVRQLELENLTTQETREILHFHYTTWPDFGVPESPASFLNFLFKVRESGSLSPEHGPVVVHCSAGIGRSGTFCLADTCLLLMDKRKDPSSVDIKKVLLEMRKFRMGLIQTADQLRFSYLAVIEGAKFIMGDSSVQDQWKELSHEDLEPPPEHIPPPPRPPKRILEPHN
# Procedure: Fig. 4 Identification and characterization of small molecules that mimic the effect of scFv45. a Reversibly oxidized PTP1B (PTP1B-OX) was generated by incubation with H2O2 in vitro, desalted, then assayed (20 nM) in the presence and absence of individual members of the LOPAC library. In the right panel, each dot represents an activity measurement. […] Data are representative of at least two independent experiments (n = 2). b Increasing concentration of sanguinarine was tested against reduced (circle) and oxidized (square) forms of PTP1B, using DiFMUP as substrate. c Increasing concentration of levamisole was tested against reduced (circle) and oxidized (square) PTP1B, using DiFMUP as substrate. d PTP1B-OX (200 nM) was incubated with sanguinarine (25 µM) for 5 min and the complex was diluted 100-fold and the activity was monitored for 120 min continuously. e PTP1B-OX (200 nM) was incubated with levamisole (40 µM) for 5 min and the complex was diluted 100-fold and the activity was monitored for 120 min continuously. f Increasing concentration of chelerythrine, an analog of sanguinarine, was tested against reduced (circle) and oxidized (square) forms of PTP1B, using DiFMUP as substrate. […] Individual data points represent the mean obtained from three separate experiments (n = 3; b–g)
# (§1) Purified PTP1B (1–321) (100 nM) was mixed with increasing concentrations of H2O2 (0.05–100 mM) in phosphatase assay buffer (50 mM HEPES, pH 7.0, 100 mM NaCl, 0.1% BSA) at room temperature for 5 min. From this reaction mixture PTP1B (10 nM) was used to monitor phosphatase activity using DiFMUP as the substrate, with or without 5 mM TCEP. Activity of each sample was compared to that of the untreated PTP1B in the presence of 5 mM TCEP.
# PKC = conditions: cited from earlier work
# PTP1B-OX [1] = target: T2, PTP1B-OX (Homo sapiens, UniProt P18031); assay: reduction and reactivation of reversibly oxidized PTP1B by TCEP, DiFMUP substrate; type: biochemical; conditions: complex diluted 100-fold, activity monitored 120 min
# T2 construct: Purified PTP1B (1–321) (100 nM) was mixed with increasing concentrations of H2O2; 6xHis (C); made in house; host or cells: E. coli BL21 (DE3)-RIL
# T2 sequence (P18031 1-321): T1 sequence (P18031 1-321)
# PTP1B-OX [2] = target: T2, PTP1B-OX; assay: as above; type: biochemical; conditions: for restoration of PTP1B-OX activity by TCEP in LOPAC primary screen: compound 10 μM; for IC50: wild-type PTP1B-OX, reactivation by TCEP, DiFMUP substrate, read-out: IC50 against PTP1B-OX
# Procedure: Therefore, our approach has been to adapt this assay, which we used to screen for conformation-sensor scFvs[17], now to screen for small molecules that act through a similar mechanism. Our primary screening assay tested the ability of small molecule inhibitors to antagonize the reduction and reactivation of the oxidized conformation of PTP1B, similar to that of scFv45 (Fig. 4a).
# as §1
# To screen the LOPAC library against PTP1B-OX, 0.5 μl of 1 mM compound in 100% DMSO was added to 384-well plates, resulting in a final compound concentration of 10 μM for the primary screen. Recombinant PTP1B (100 nM) was reversibly oxidized and inactivated with H2O2 (4 mM). The phosphatase activity was restored by a quick buffer exchange and addition of reducing agent (TCEP). PTP1B-OX was incubated with LOPAC compounds (10 μM) in the assay buffer (50 mM HEPES pH 7.0, 100 mM NaCl, 0.005% Tween, 2 mM EDTA) and the effect of individual compound on stabilizing the reversibly oxidized conformation was assessed by the phosphatase assay under reducing conditions using DiFMUP as substrate. scFv45 was used as positive control.
Structure (SMILES),inhibition of the reduced form of PTP1B (reduced PTP1B),inhibition of PKC (PKC),reversibility of PTP1B-OX inhibition (PTP1B-OX [1]),restoration of PTP1B-OX activity by TCEP in LOPAC primary screen (PTP1B-OX [2]),IC50 (PTP1B-OX [2])
C[n+]1cc2c3c(ccc2c2ccc4cc5c(cc4c21)OCO5)OCO3 [sanguinarine],no effect,not an inhibitor,reversible,only able to restore enzymatic activity partially,25 µM
c1ccc([C@H]2CN3CCSC3=N2)cc1 [levamisole],no effect,,reversible,only able to restore enzymatic activity partially,36 µM
